22 compounds from ChEMBL document CHEMBL3400145, “Design and synthesis of piperazine derivatives as a novel class of γ-secretase modulators that selectively lower Aβ₄₂ production” (Bioorg Med Chem, 2015) can be followed below.

For orientation: inhibition means the relative decrease from the control value, in per cent. What is called Cmax is the maximum level reached in the sampled fluid or tissue. For orientation: AUC means concentration integrated over time. A low value points to low exposure. Broadly, the MRT is a mean duration of stay, worked out from the concentration-time curve. For orientation: inhibition in vivo means the percentage by which the read-out fell short of the control. Higher therefore signals strong suppression.

Structures are written as SMILES. The source made the active and inactive calls. The rule behind the calls is not given here.

In data set [1] the test system is neuronal. As to the kind of experiment: Inhibition of amyloid beta40 production in rat neuronal cells assessed as inflection point after 3 days by ELISA. It counts as cell-based. Background: ELISA stands for enzyme-linked immunosorbent assay.
Data set [2] concerns neuronal. As to the kind of experiment: Inhibition of amyloid beta40 production in rat neuronal cells assessed as maximal inhibition at 3 uM after 3 days by ELISA. It counts as cell-based.
Data set [3] is described as follows: Metabolic stability in rat hepatic microsomes by LC/MS/MS analysis. The data set is classed as ADME, Liver, Microsome. The conditions noted are these: read-out: CLH.
Data set [4] concerns the target Amyloid-beta precursor protein (Homo sapiens) (UniProt P05067). As to the kind of experiment: Inhibition of amyloid beta40 production in human IMR32 cell by ELISA. It counts as functional, cell-based. The conditions noted are these: IMR-32.
Data set [5] has the same target. As to the kind of experiment: Inhibition of amyloid beta42 production in human IMR32 cell by ELISA. Conditions: IMR-32. It counts as functional, cell-based.
The test system of data set [6] is IMR-32. As to the kind of experiment: Inhibition of total amyloid beta production in human IMR32 cell by ELISA. It counts as functional, cell-based.
Data set [7] is described as follows: Volume of distribution at steady state in C57BL/6J mouse at 0.1 mg/kg, iv cassette dosing. The data set is classed as ADME, organism-based. Also noted: dose 0.1 mg/kg, route intravenous. The conditions noted are these: in vivo, read-out: Vdss.
The nature of data set [8]: Cmax in C57BL/6J mouse at 1 mg/kg, po cassette dosing. The conditions noted are these: in vivo. The data set is classed as ADME, organism-based. Also noted: dose 1 mg/kg, route oral.
Data set [9] has as its system Mus musculus. As to the kind of experiment: AUC in C57BL/6J mouse at 1 mg/kg, po cassette dosing. It counts as ADME, organism-based, Plasma. Also noted: dose 1 mg/kg, route oral. The conditions noted are these: in vivo.
Data set [10] in a line: Mean residence time in C57BL/6J mouse at 1 mg/kg, po cassette dosing. The data set is classed as ADME, organism-based. Also noted: dose 1 mg/kg, route oral. The conditions noted are these: in vivo.
The test system of data set [11] is Mus musculus. As to the kind of experiment: Oral bioavailability in C57BL/6J mouse at 1 mg/kg cassette dosing. The data set is classed as ADME, organism-based. Conditions: in vivo.
Data set [12] deals with Brain. As to the kind of experiment: Reduction in soluble amyloid beta42 in C57BL/6J mouse brain at 100 mg/kg, po after 3 hrs by ELISA relative to vehicle treated control. It counts as functional.
In data set [13] the test system is Brain. As to the kind of experiment: Reduction in soluble amyloid beta40 in C57BL/6J mouse brain at 100 mg/kg, po after 3 hrs by ELISA relative to vehicle treated control. It counts as functional.
In data set [14] the test system is Plasma. As to the kind of experiment: Reduction in soluble amyloid beta42 in C57BL/6J mouse plasma at 100 mg/kg, po after 3 hrs by ELISA relative to vehicle treated control. It counts as functional.
In data set [15] the test system is Plasma. As to the kind of experiment: Reduction in soluble amyloid beta40 in C57BL/6J mouse plasma at 100 mg/kg, po after 3 hrs by ELISA relative to vehicle treated control. It counts as functional.

Sequence of Amyloid-beta precursor protein (Homo sapiens) (P05067 whole entry): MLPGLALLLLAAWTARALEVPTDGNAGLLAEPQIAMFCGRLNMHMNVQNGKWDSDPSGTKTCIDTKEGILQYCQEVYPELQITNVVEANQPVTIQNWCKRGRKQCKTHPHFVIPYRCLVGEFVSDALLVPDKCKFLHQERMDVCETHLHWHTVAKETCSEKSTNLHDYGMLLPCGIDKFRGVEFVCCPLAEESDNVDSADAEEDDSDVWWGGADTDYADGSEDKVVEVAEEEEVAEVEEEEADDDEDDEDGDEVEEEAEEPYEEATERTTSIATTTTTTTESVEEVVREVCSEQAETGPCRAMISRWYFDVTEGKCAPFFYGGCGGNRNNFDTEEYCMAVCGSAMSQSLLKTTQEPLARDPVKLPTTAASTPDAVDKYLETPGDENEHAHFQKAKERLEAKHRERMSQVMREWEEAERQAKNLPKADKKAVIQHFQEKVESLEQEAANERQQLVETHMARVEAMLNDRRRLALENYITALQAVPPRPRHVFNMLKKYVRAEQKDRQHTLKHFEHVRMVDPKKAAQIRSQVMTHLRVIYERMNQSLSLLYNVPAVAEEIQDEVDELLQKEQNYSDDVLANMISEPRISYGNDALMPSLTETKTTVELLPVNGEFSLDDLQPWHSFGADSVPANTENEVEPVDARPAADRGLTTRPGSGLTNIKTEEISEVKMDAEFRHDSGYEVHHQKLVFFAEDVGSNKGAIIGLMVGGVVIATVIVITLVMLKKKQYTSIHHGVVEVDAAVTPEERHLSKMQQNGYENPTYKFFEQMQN

In the case of `COc1cc(N2CCCN(C(=O)N[C@@H](C)c3cccc4ccccc34)CC2)ccc1-c1cnc(C)o1`, the Activity in data set [1] amounted to 38 nM. Moreover, the inhibition in data set [2] stood at 57%. In data set [3], the microsomal CLint turned out to be 240 µL/min/mg.

Regarding `COc1cc(N2CCN(C(=O)Cn3cnc4ccc(C(F)(F)F)cc43)CC2)ccc1-c1cnc(C)o1`, the Activity in data set [1] was 65 nM. Also, the inhibition in data set [2] amounted to 50%. Besides, in [3], the microsomal CLint was 23 µL/min/mg.

`COc1cc(N2CCN(C(=O)Cn3nnc4ccccc43)CC2)ccc1-c1cnc(C)o1`: the Activity in data set [1] was 210 nM. Besides, the inhibition in data set [2] came to 47%. The microsomal CLint in data set [3] was found to be 27 µL/min/mg.

In the case of `COc1cc(C2CCN(C(=O)N[C@@H](C)c3cccc4ccccc34)CC2)ccc1-c1cnc(C)o1`, the Activity in [1] was determined as 260 nM. Moreover, the inhibition in [2] came to 61%. Further, the microsomal CLint in data set [3] was 170 µL/min/mg.

Take `COc1cc(N2CCN(C(=O)Cn3cnc4cc(C(F)(F)F)ccc43)C[C@@H]2C)ccc1-c1cnc(C)o1`: in data set [1], the Activity stood at 21 nM. For the same compound, the inhibition in data set [2] was 60%; in data set [5], “Dose-dependent effect”. The microsomal CLint in data set [3] turned out to be 67 µL/min/mg. Further, the inhibition entry in data set [4] and in data set [6] was “inactive” each time. Besides, in data set [7], the Vd turned out to be 0.36 L/kg. The Cmax in data set [8] is 773 ng/mL. The same compound showed an AUC in [9] of 3930 ng·h/mL. Besides, the MRT in data set [10] came to 3.26 h. Also, in [11], the F is 46%. Moreover, the inhibition in vivo at 100 mg/kg in data set [12] worked out at 41%; in [14], 36%. Also, the % of control at 100 mg/kg in data set [13] is 105%; in data set [15], 106%.

As to `COc1cc(N2CCN(C(=O)N[C@@H](C)c3cccc4ccccc34)CC2)ccc1-n1cc(C)nn1`, the Activity in data set [1] came out at 450 nM. Moreover, the inhibition in [2] worked out at 47%. For the same compound, the microsomal CLint in [3] was found to be 230 µL/min/mg.

As to `COc1cc(N2CCN(C(=O)N[C@@H](C)c3cccc4ccccc34)C[C@H]2C)ccc1-c1cnc(C)o1`, in data set [1], the Activity is 56 nM. Besides, the inhibition in [2] worked out at 65%. In [3], the microsomal CLint amounted to 150 µL/min/mg.

Regarding `COc1cc(N2CCN(C(=O)NCc3cccc4ccccc34)CC2)ccc1-c1cnc(C)o1`, in data set [1], the Activity was 50 nM. Besides, the inhibition in data set [2] is 59%. In addition, the microsomal CLint in [3] was determined as 160 µL/min/mg.

For the compound `COc1cc(N2CCN(C(=O)Cn3cnc4cc(C(F)(F)F)ccc43)CC2)ccc1-c1cnc(C)o1`, in data set [1], the Activity worked out at 50 nM. The inhibition in data set [2] amounted to 61%. Besides, in data set [3], the microsomal CLint worked out at 66 µL/min/mg.

As to `COc1cc(N2CCN(C(=O)Cn3cnc4cccc(C(F)(F)F)c43)CC2)ccc1-c1cnc(C)o1`, the Activity in data set [1] was found to be 420 nM. Besides, in data set [2], the inhibition turned out to be 46%. The microsomal CLint in [3] came to 7 µL/min/mg.

In the case of `COc1cc(N2CCN(C(=O)Cn3ncc4ccccc43)CC2)ccc1-c1cnc(C)o1`, in data set [1], the Activity turned out to be 170 nM. For the same compound, the inhibition in data set [2] was 49%. In [3], the microsomal CLint worked out at 77 µL/min/mg.

As for `COc1cc(N2CCN(C(=O)Cn3cnc4ccc(C(F)(F)F)cc43)C[C@@H]2C)ccc1-c1cnc(C)o1`, the Activity in data set [1] stood at 30 nM. In data set [2], the inhibition was 46%. The microsomal CLint in [3] came to 50 µL/min/mg.

With `COc1cc(N2CCN(C(=O)N[C@@H](C)c3cccc4ccccc34)CC2)ccc1-c1cnn(C)c1`, the Activity in data set [1] is 180 nM. In [2], the inhibition was 63%. Besides, the microsomal CLint in data set [3] stood at 150 µL/min/mg.

Consider `COc1cc(N2CCN(C(=O)Cn3cnc4ccccc43)CC2)ccc1-c1cnc(C)o1`, for which the Activity in data set [1] was 93 nM. Besides, the inhibition in data set [2] was determined as 71%. The microsomal CLint in data set [3] was determined as 22 µL/min/mg.

For the compound `COc1cc(N2CCN(C(=O)N[C@@H](C)c3cccc4ccccc34)CC2)ccc1-n1cnc(C)c1`, the Activity in data set [1] came out at 56 nM. In [2], the inhibition stood at 57%. For the same compound, the microsomal CLint in [3] was found to be 150 µL/min/mg. The figures for the inhibition in vivo at 100 mg/kg in data set [12] and in data set [14] were 4% and 16%, respectively.

As to `COc1cc(N2CCN(C(=O)N[C@@H](C)c3cccc4ccccc34)C[C@@H]2C)ccc1-c1cnc(C)o1`, the Activity in data set [1] was 21 nM. In addition, in data set [2], the inhibition is 64%. In data set [3], the microsomal CLint turned out to be 150 µL/min/mg.

In the case of `COc1cc(N2CCN(C(=O)CN3Cc4ccccc4C3)CC2)ccc1-c1cnc(C)o1`, the Activity in data set [1] was 620 nM. Further, the inhibition in data set [2] turned out to be 48%. Further, in [3], the microsomal CLint came to 42 µL/min/mg.

With `COc1cc(N2CCN(C(=O)CN3CCc4ccccc43)CC2)ccc1-c1cnc(C)o1`, in data set [1], the Activity was found to be 290 nM. The inhibition in [2] turned out to be 52%. Also, the microsomal CLint in data set [3] was 160 µL/min/mg.

In the case of `COc1cc(N2CCN(C(=O)N[C@@H](C)c3cccc4ccccc34)CC2)ccc1-c1cnc(C)o1`, the Activity in data set [1] is 34 nM. Also, the inhibition in data set [2] stood at 67%. Besides, in data set [3], the microsomal CLint is 130 µL/min/mg.

In the case of `COc1cc(N2CCN(C(=O)Cn3ccc4ccccc43)CC2)ccc1-c1cnc(C)o1`, the Activity in [1] came to 180 nM. In addition, the inhibition in [2] was 50%. Besides, the microsomal CLint in [3] was determined as 140 µL/min/mg.

With `COc1cc(N2CCN(C(=O)N[C@@H](C)c3cccc4ccccc34)CC2)ccc1-n1cnc(C)n1`, the Activity in [1] was 170 nM. The inhibition in [2] came out at 68%. Further, in data set [3], the microsomal CLint came out at 110 µL/min/mg.

`COc1cc(N2CCN(C(=O)Cn3cnc4c(C(F)(F)F)cccc43)CC2)ccc1-c1cnc(C)o1`: the Activity in [1] was found to be 110 nM. Further, the inhibition in data set [2] was 53%. For the same compound, in [3], the microsomal CLint turned out to be 12 µL/min/mg.
